Data on 39 molecules can be found in patent US11840521B2, “Modulators of Mas-related G-protein receptor X4 and related products and methods” (Escient Pharmaceuticals, Inc., priority 2019, dated 2023).

Series [1] is described as follows: Mouse pharmacokinetics study, 50 mg/kg oral gavage, plasma LC-MS/MS. The conditions noted are these: male C57BL/6 mice, non-fasted. It is filed as in vivo. The method, then:
Compounds were formulated in 5% DMSO, 5% Solutol, and […] phosphate buffered saline at a concentration of 5 mg/mL, and typically appeared as a fine homogenous suspension. Male C57BL/6 mice (n=3/compound) were administered a 50 mg/kg dose of each compound by oral gavage under a non-fasted condition. Blood samples were collected via the saphenous vein onto K2-EDTA at 0.25, 0.5, 1, 2, 4, 8 and 24 hours after dosing, and plasma was prepared and stored at […] until analysis. Plasma sample preparation for analysis was done by protein precipitation using acetonitrile (including Celecoxib as an internal standard) followed by centrifugation. Compound concentrations were determined in extracted plasma using LC-MS/MS relative to an 8 point standard curve covering the 1 to 3000 ng/mL range. Non-compartmental analysis using Phoenix WinNonlin was used to estimate pharmacokinetic parameters including area under the curve, clearance, and half-life. The administered dose was confirmed by analysis of residual dosing material by UPLC-UV relative to a single point calibration sample.

The next series deals with MRGPRX4 (Homo sapiens, UniProt Q96LA9). Nature of the series: MRGPR X4 antagonist activity, IP-One Gq HTRF assay in stably transfected HEK cells (versus agonist bilirubin, deoxycholic acid, conjugated bilirubin, urobilin, obeticholic acid or BAR502). Format: cell-based. Set-up: expressed in transfected cells; host or cells: HEK cells, stably transfected. Summed up:
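Stably transfected HEK cells expressing human MRGPR X4, seeded overnight, given compounds as 10-point 1:3 curves from 10 uM final top, incubated 1 h at 37° C then 30 min at room temperature. IP-1 measured by IP-One Gq HTRF. IC50 derived from the HTRF ratio.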
Background: In TR-FRET formats the signal depends on donor and acceptor labels being close together.

Where [2] appears, read: versus 10 μM Bilirubin agonist, HEK cells expressing human MRGPR X4, read-out: MRGPR4 Antagonist Activity.
The mark [3] stands for this setting: versus 10 μM Bilirubin agonist, read-out: IC50 (Bilirubin agonist).
[4] abbreviates: versus 20 μM deoxycholic acid, read-out: IC50 (Deoxycholic Acid agonist).
Where [5] appears, read: versus 20 μM obeticholic acid, read-out: IC50 (Obeticholic Acid Agonist).
[6] abbreviates: versus 50 μM urobilin, read-out: IC50 (Urobilin Agonist).
The mark [7] stands for this setting: versus 100 μM conjugated bilirubin, read-out: IC50 (Conjugated Bilirubin Agonist).
The mark [8] stands for this setting: read-out: IC50 (10 μM BAR502) nM, MRGPRX4 antagonists versus 10 μM BAR502 agonist.

Read-outs that look alike come from different tables or passages of the source.

MRGPRX4, sequence (Q96LA9 whole entry): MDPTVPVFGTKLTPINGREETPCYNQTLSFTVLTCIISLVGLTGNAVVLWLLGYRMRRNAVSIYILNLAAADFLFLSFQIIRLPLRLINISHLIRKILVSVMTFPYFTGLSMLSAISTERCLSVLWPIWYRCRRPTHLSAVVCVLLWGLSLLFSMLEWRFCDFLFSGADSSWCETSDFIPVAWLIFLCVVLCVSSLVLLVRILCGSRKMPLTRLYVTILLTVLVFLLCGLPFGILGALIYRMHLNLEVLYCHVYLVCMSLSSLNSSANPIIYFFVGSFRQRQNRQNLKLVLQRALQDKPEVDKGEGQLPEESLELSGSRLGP

The term Cmax denotes the maximum level reached in the sampled fluid or tissue. In series [1], `Cc1cc(COc2ccc(C(F)(F)F)cc2Cl)cc(C(=O)O)c1` [Compound 4-10, 3-((2-chloro-4-(trifluoromethyl)phenoxy)methyl)-5-methylbenzoic acid] gave an AUC of 974 μMxhr. In series [1], this molecule returned a Cmax of 260 µM. In series [1], this molecule came in with a T-1/2 of 4.6 h. In addition, the IC50 was less than 100 nM at MRGPRX4 (setting [2]); 16 nM on MRGPRX4 (setting [3]); 22 nM on MRGPRX4 (setting [4]); 15 nM at MRGPRX4 (setting [5]); 35 nM at MRGPRX4 (setting [6]); 21 nM at MRGPRX4 (setting [7]).
On to `O=C(O)c1cccc(COc2ccc(Cl)c(Cl)c2Cl)c1` [Compound 1-78], for which the AUC in series [1] was 219 μMxhr. In addition, the peak level in series [1] (Cmax) was 57 µM. The same molecule displayed a T-1/2 in series [1] of 4.0 h. Also, the IC50 is 20 nM on MRGPRX4 (setting [8]); less than 100 nM at MRGPRX4 (setting [2]); 7 nM on MRGPRX4 (setting [3]); 24 nM at MRGPRX4 (setting [4]); 21 nM at MRGPRX4 (setting [5]); 13 nM at MRGPRX4 (setting [6]). On MRGPRX4 (setting [7]), the IC50 was 24 nM.
Regarding `CCc1cc(COc2ccc(C(F)(F)F)cc2Cl)nc(C(=O)O)c1` [Compound 42-3], in series [1], the AUC is listed as 4700 μMxhr. The Cmax in series [1] turned out to be 460 µM. In series [1], this molecule showed a T-1/2 of 5.4 h. Further, the IC50 on MRGPRX4 (setting [8]) was 17 nM; on MRGPRX4 (setting [2]), less than 100 nM; on MRGPRX4 (setting [3]) it was 16 nM; at MRGPRX4 (setting [4]), 16 nM; at MRGPRX4 (setting [5]), 7 nM; on MRGPRX4 (setting [6]) it was 21 nM. Moreover, the IC50 at MRGPRX4 (setting [7]) worked out at 28 nM.
Molecule `Cc1cc(COc2ccc(C(F)(F)F)cc2C)cc(C(=O)O)c1` [Compound 4-11] yielded an AUC in series [1] of 572 μMxhr. In addition, the concentration in series [1] peaked (Cmax) at 257 µM. The molecule further registered a T-1/2 in series [1] of 3.6 h. Further, the IC50 on MRGPRX4 (setting [2]) is less than 100 nM; on MRGPRX4 (setting [3]), 24 nM; at MRGPRX4 (setting [4]), 63 nM; at MRGPRX4 (setting [5]), 25 nM; at MRGPRX4 (setting [6]) it was 35 nM; on MRGPRX4 (setting [7]), 41 nM.
Take `O=C(O)c1cccc(COc2ccc(Cl)cc2Cl)c1F` [Compound 4-1, 3-((2,4-dichlorophenoxy)methyl)-2-fluorobenzoic acid]: the AUC in series [1] was 1503 μMxhr. For the same molecule, the Cmax in series [1] amounted to 231 µM. The molecule also gave a T-1/2 in series [1] of 5.9 h. Also, the IC50 on MRGPRX4 (setting [2]) was less than 100 nM; at MRGPRX4 (setting [3]), 27 nM; on MRGPRX4 (setting [4]) it was 55 nM; at MRGPRX4 (setting [7]) it was 81 nM.
For the molecule `O=C(O)c1cccc(COc2ccc(Cl)cc2Cl)c1` [Compound 1-18], in series [1], the AUC is recorded as 376 μMxhr. The same molecule gave a Cmax in series [1] of 113 µM. The T-1/2 in series [1] is 4.2 h. Further, the IC50 at MRGPRX4 (setting [8]) is 48 nM; on MRGPRX4 (setting [2]), less than 100 nM; on MRGPRX4 (setting [3]), 57 nM; on MRGPRX4 (setting [4]), 130 nM; on MRGPRX4 (setting [5]) it was 40 nM; at MRGPRX4 (setting [6]), 230 nM. In addition, the IC50 on MRGPRX4 (setting [7]) is 130 nM.
The molecule `O=C(O)c1cccc(COc2ccc(C(F)(F)F)cc2Cl)c1` [Compound 1-29] had an AUC in series [1] of 615 μMxhr. This molecule showed a Cmax in series [1] of 196 µM. The same molecule came in with a T-1/2 in series [1] of 4.6 h. The IC50 was less than 100 nM at MRGPRX4 (setting [2]); 20 nM on MRGPRX4 (setting [3]); 46 nM on MRGPRX4 (setting [4]); 25 nM on MRGPRX4 (setting [5]); 16 nM on MRGPRX4 (setting [6]); 46 nM on MRGPRX4 (setting [7]).
The molecule `O=C(O)c1cccc(COc2ccc(C(F)(F)F)cc2Cl)c1F` [Compound 1-55, 3-((2-chloro-4-(trifluoromethyl)phenoxy)methyl)-2-fluorobenzoic acid] had an AUC in series [1] of 2150 μMxhr. For the same molecule, the highest level in series [1] (Cmax) was 230 µM. The T-1/2 in series [1] was 11.2 h. The IC50 at MRGPRX4 (setting [8]) was 16 nM; on MRGPRX4 (setting [2]) it was less than 100 nM; on MRGPRX4 (setting [3]) it was 6 nM; at MRGPRX4 (setting [4]) it was 22 nM; at MRGPRX4 (setting [5]), 11 nM; on MRGPRX4 (setting [6]), 23 nM. The IC50 at MRGPRX4 (setting [7]) was 14 nM.
As for `O=C(O)c1cccc(COc2ccc(C(F)(F)F)cc2Cl)n1` [Compound 1-56, 6-((2-chloro-4-(trifluoromethyl)phenoxy)methyl)picolinic acid], in series [1], the AUC is given as 880 μMxhr. This molecule also displayed a Cmax in series [1] of 162 µM. The T-1/2 in series [1] stood at 3.2 h. Besides, the IC50 on MRGPRX4 (setting [8]) is 16 nM; at MRGPRX4 (setting [2]), less than 100 nM; at MRGPRX4 (setting [3]) it was 28 nM; on MRGPRX4 (setting [4]), 30 nM; on MRGPRX4 (setting [5]) it was 24 nM; at MRGPRX4 (setting [6]), 21 nM. Moreover, on MRGPRX4 (setting [7]), the IC50 came out at 32 nM.
In the case of `N#Cc1cc(CCc2ccc(C(F)(F)F)cc2Cl)cc(C(=O)O)c1` [Compound 61-1, 3-(2-chloro-4-(trifluoromethyl)phenethyl)-5-cyanobenzoic acid], on MRGPRX4 (setting [2]), the IC50 was 100 to 500 nM.
The same measure, in the same setting: the value for `N#Cc1cc(COc2ccc(OC(F)(F)F)cc2Cl)cc(C(=O)O)c1` [Compound 32-4] was less than 100 nM.
Same read-out and setting: the value for `Cc1cc(COc2ccc3ccccc3c2)cc(C(=O)O)c1` [Compound 4-12] was less than 100 nM; that for `Cc1cc(Cl)ccc1OCc1cccc(C(=O)O)n1` [Compound 1-57] was 100 to 500 nM.
On to `O=C(O)c1cccc(COc2ccc(C3CC3)cc2Cl)c1` [Compound 1-122], for which the IC50 at MRGPRX4 (setting [2]) lay within 100 to 500 nM.
Take `O=C(O)c1cccc(CNc2ccc3ccccc3c2)c1` [Compound 12-2]: the IC50 at MRGPRX4 (setting [2]) lay within 500 to 1000 nM.
On to `O=C(O)c1cccc(COc2ccc3ccccc3c2)c1` [Compound 1-17], for which the IC50 on MRGPRX4 (setting [2]) is 100 to 500 nM.
Same read-out and setting: the value for `COc1ccc(OCc2cccc(C(=O)O)c2)cc1` [Compound 1-38] was 100 to 500 nM; that for `O=C(NCCO)c1cccc(COc2ccc(C(F)(F)F)cc2Cl)c1` [Compound 52-16] was 100 to 500 nM.
Take `Cc1cc(C(F)(F)F)ccc1OCc1cc(C#N)cc(C(=O)O)c1` [Compound 32-2]: the IC50 was 17 nM at MRGPRX4 (setting [8]) and less than 100 nM on MRGPRX4 (setting [2]).
On to `O=C(O)c1cccc(COc2ccc3c(c2)CCC3=O)c1` [Compound 1-74], for which the IC50 on MRGPRX4 (setting [2]) is more than 2500 nM.
The same measure, in the same setting: then `Cc1cc(F)c(F)cc1OCc1cccc(C(=O)O)c1` [Compound 1-71], with 500 to 1000 nM; and `COc1ccc(OCc2cccc(C(=O)O)c2)c(F)c1F` [Compound 1-96], with 500 to 1000 nM; and `O=C(O)c1cccc(COc2cccc(Cl)c2F)c1` [Compound 1-75], with 1000 to 2500 nM.
Still for that read-out and setting: the value for `COC(=O)c1cccc(COc2ccc(Cl)cc2C(F)(F)F)c1` [Compound 1-1] was 1000 to 2500 nM; that for `O=C(O)c1cccc(CNc2ccc(Cl)cc2Cl)c1` [Compound 12-1, 3-(((2,4-dichlorophenyl)amino)methyl)benzoic acid] was 100 to 500 nM; that for `O=C(O)c1cccc(COc2ccc(C(F)(F)F)cc2F)c1` [Compound 1-64] was less than 100 nM.
As for `COC(=O)c1cncc(COc2ccc(Cl)cc2Cl)n1` [Compound 1-9], the IC50 at MRGPRX4 (setting [2]) was in the range of 1000 to 2500 nM.
The same measure, in the same setting: then `O=C(N[C@@H](CO)C(=O)O)c1cccc(COc2ccc(C(F)(F)F)cc2Cl)c1` [Compound 54-9], with 100 to 500 nM; and `NCCNC(=O)c1cccc(COc2ccc(C(F)(F)F)cc2Cl)c1` [Compound 53-2], with 1000 to 2500 nM.
With `CC(Oc1ccc(C(F)(F)F)cc1Cl)c1cccc(C(=O)O)c1` (stereo not shown) [Compound 62-1, 3-(1-(2-chloro-4-(trifluoromethyl)phenoxy)ethyl)benzoic acid], at MRGPRX4 (setting [2]), the IC50 is less than 100 nM.
Still for that read-out and setting: the value for `O=C(O)c1cc(Br)cc(COc2ccc(C(F)(F)F)cc2Cl)c1` [Compound 2-3] was less than 100 nM.
For the molecule `O=C(O)c1cccc(COc2ccc(F)cc2Cl)c1` [Compound 1-24], the IC50 on MRGPRX4 (setting [2]) is more than 2500 nM.
Same read-out and setting: then `O=C(O)c1cccc(COc2cccc(Br)c2)c1` [Compound 1-109], with 500 to 1000 nM; and `O=C1CC(c2cccc(COc3ccc(C(F)(F)F)cc3Cl)c2)N1` (stereo not shown) [Compound 59-1, 4-(3-((2-chloro-4-(trifluoromethyl)phenoxy)methyl)phenyl)azetidin-2-one], with 500 to 1000 nM; and `N#Cc1cc(COc2ccc(C(F)(F)F)c(Cl)c2)cc(C(=O)O)c1` [Compound 32-5], with less than 100 nM.
Take `Cc1cc(COc2ccc(Cl)c(Cl)c2Cl)nc(C(=O)O)c1` [Compound 2-4]: the IC50 on MRGPRX4 (setting [2]) was less than 100 nM.
`COC(=O)c1cccc(COc2ccc(Cl)cc2C)n1` [Compound 1-13]: at MRGPRX4 (setting [2]), the IC50 lay within 100 to 500 nM.
`COC(=O)c1cccc(COc2ccc(C(F)(F)F)cc2Cl)c1` [Compound 1-2]: the IC50 on MRGPRX4 (setting [2]) fell in the range of 100 to 500 nM.
Still for that read-out and setting: the value for `CN(C)CCNC(=O)c1cccc(COc2ccc(C(F)(F)F)cc2Cl)c1` [Compound 52-17] was 500 to 1000 nM.
